Patent US4314028A, “Fermentation process for producing tallysomycin compounds” (priority 1980, dated 1982)

Key:
[1] = test system: Aspergillus fumigatus IAM 2593; assay: MIC, two-fold agar dilution method; assay type: cell-based; settings: Sabouraud agar
Procedure: (§1) The minimum inhibitory concentrations (MIC) of the semibiosynthetic tallysomycin derivatives of the present invention were determined against fungi and gram-positive, gram-negative and acid-fast bacteria by the two-fold agar dilution method. Nutrient agar was used for bacteria and Sabouraud agar for fungi. The results are shown in the table below comparatively with tallysomycin A and B.

[2] = test system: Bacillus subtilis PCI 219; assay: MIC, two-fold agar dilution method; assay type: cell-based; settings: nutrient agar
Procedure: as §1

[3] = test system: Candida albicans IAM 4888; assay: MIC, two-fold agar dilution method; assay type: cell-based; settings: Sabouraud agar
Procedure: as §1

Escherichia coli NIHJ = assay: MIC, two-fold agar dilution method; assay type: cell-based; settings: nutrient agar
Procedure: as §1

Mycobacterium 607 = assay: MIC, two-fold agar dilution method; assay type: cell-based; settings: nutrient agar
Procedure: as §1

Proteus mirabilis A9554 = assay: MIC, two-fold agar dilution method; assay type: cell-based; settings: nutrient agar
Procedure: as §1

Sarcina lutea PCI1001 = assay: MIC, two-fold agar dilution method; assay type: cell-based; settings: nutrient agar
Procedure: as §1

[4] = test system: Staphylococcus aureus Smith; assay: MIC, two-fold agar dilution method; assay type: cell-based; settings: nutrient agar
Procedure: as §1

[5] = test system: Mycobacterium smegmatis strain M6-3; assay: Relative antibacterial potency, paper-disc agar diffusion method; assay type: cell-based; settings: relative to tallysomycin A standard=1000 mcg/mg
Procedure: The relative antibacterial potencies (tallysomycin A standard=1000 mcg/mg) of the tallysomycin derivatives were determined by the paper-disc agar diffusion method using Mycobacterium smegmatis strain M6-3 as the assay organism.

[6] = test system: lysogenic bacterium E. coli W1709 (λ); assay: Prophage induction of lysogenic bacterium (ILB activity); assay type: cell-based; settings: t/c ratio of plaque counts greater than 3.0
Procedure: The activity of prophage induction of lysogenic bacterium E. coli W1709 (λ) was determined according to the method disclosed by Lein et al. in Nature 196: 783-784 (1962). The plaque count was made on the agar plate containing test compound (t) and control plate (c). A t/c ratio of the plaque counts of greater than 3.0 was defined to be a significant level and lysogenic induction activity (ILB activity) was expressed by the minimum inducible concentration of the test compound.

[7] = test system: Lymphocytic leukemia P388; assay: animal or person; assay type: in vivo, BDF1 mice; settings: copper-chelated form unless otherwise stated; for Antitumor activity P388 (ED125): ip, once daily 9 days, dose giving T/C survival of 125%; for Antitumor therapeutic index P388: single dose LD50/ED125
From the text: (§2) The antitumor activity of the tallysomycin derivatives was examined in four experimental tumor systems in mice. Lymphocytic leukemia P388 and Lewis lung carcinoma were implanted intraperitoneally into BDF1 mice of either sex at an inoculum size of 3×10^5 and 5×10^5 cells per mouse, respectively. Sarcoma 180 ascites tumor was inoculated intraperitoneally into male dd-strain mice with […] per mouse. Melanotic melanoma B16 was implanted subcutaneously into BDF1 mice with 5×10^5 cells per mouse. Twenty-four hours after the implantation of tumor cells, graded doses of test compounds were administered to mice intraperitoneally in an injection volume of 0.2 ml. per 10 grams of body weight. Test compounds were given once daily for 9 days (qd 1→9 schedule) except for the mice inoculated with Lewis lung carcinoma which were treated for 11 days (qd 1→11). Death or survival of the treated and non-treated (control) animals was recorded daily during the observation period of 45 days after the implantation of tumor cells, and the median survival time was calculated for each of the test (T) and control (C) groups. […] The actual dose giving a T/C of 125% was estimated by linear regression analysis and defined as the effective dose 125 or ED125. The effective dose 150 (ED150) was employed for the evaluation of antitumor effect against Sarcoma 180. In the B16 melanoma experiment the tumor size was measured on day 16 after tumor inoculation, and the dose giving 50% inhibition of tumor growth (ID50) was calculated from regression lines.
(§3) The antitumor therapeutic index was calculated for each derivative from the ratio of toxicity and antitumor activity.

Sarcoma 180 = assay: animal or person; assay type: in vivo, dd-strain mice; settings: copper-chelated form unless otherwise stated; for Antitumor activity S180 (ED150): ip, once daily 9 days, effective dose 150, survival; for Antitumor therapeutic index S180: single dose LD50/ED150
From the text: as §2, §3

Melanotic melanoma B16 = assay: Antitumor activity in mice, melanotic melanoma B16; assay type: in vivo, BDF1 mice; settings: copper-chelated form unless otherwise stated; for Antitumor activity B16 (ID50): ip, once daily 9 days, 50% inhibition of tumor growth, day 16, 23040 min; for Antitumor therapeutic index B16: single dose LD50/ID50
From the text: as §2, §3

Lewis lung carcinoma = assay: Antitumor activity in mice, Lewis lung carcinoma; assay type: in vivo, BDF1 mice; settings: copper-chelated form unless otherwise stated; for Antitumor activity Lewis lung (ED125): ip, once daily 11 days, dose giving T/C survival of 125%; for Antitumor therapeutic index Lewis Lung: single dose LD50/ED125
From the text: as §2, §3

[8] = Acute toxicity, single dose LD50; assay type: in vivo, dd mice; settings: ip, 30 days observation, copper-chelated form unless otherwise stated
Procedure: Graded doses of test compounds were administered intraperitoneally to groups of dd mice. The injection was given one time only or once daily for 9 consecutive days. Death or survival of the animals was recorded for 30 days after the last dose of test compound to calculate the single or multiple median lethal dose (LD50).

| Compound | minimum inhibitory concentration (MIC) [1] | minimum inhibitory concentration (MIC) [2] | minimum inhibitory concentration (MIC) [3] | minimum inhibitory concentration (MIC) (Escherichia coli NIHJ) | minimum inhibitory concentration (MIC) (Mycobacterium 607) | minimum inhibitory concentration (MIC) (Proteus mirabilis A9554) | minimum inhibitory concentration (MIC) (Sarcina lutea PCI1001) | minimum inhibitory concentration (MIC) [4] | Antibacterial potency [5] | ILB activity (minimum inducible concentration) [6] | Antitumor activity P388 (ED125) [7] | Antitumor therapeutic index P388 [7] | Antitumor activity S180 (ED150) (Sarcoma 180) | Antitumor therapeutic index S180 (Sarcoma 180) | Antitumor activity B16 (ID50) (Melanotic melanoma B16) | Antitumor therapeutic index B16 (Melanotic melanoma B16) | Antitumor activity Lewis lung (ED125) (Lewis lung carcinoma) | Antitumor therapeutic index Lewis Lung (Lewis lung carcinoma) | LD50 single dose [8] |
| --- | --- | --- | --- | --- | --- | --- | --- | --- | --- | --- | --- | --- | --- | --- | --- | --- | --- | --- | --- |
| Cc1c(N)nc(C(CC(N)=O)NCC(N)C(N)=O)nc1C(=O)NC(C(=O)NC(C)C(O)CC(=O)NC(C(=O)NC(OC1OC(C)C(N)C(O)C1O)C(O)c1nc(-c2nc(C(=O)NCCCN)cs2)cs1)C(C)O)C(OC1OC(CO)C(O)C(O)C1OC1OC(CO)C(O)C(OC(N)=O)C1O)c1c[nH]cn1 (stereo not drawn) [Tallysomycin S1b] | 1.6 | < 0.05 | 12.5 | 0.4 | < 0.05 | 1.6 | 1.6 | 1.6 | 1,000 μ/mg | 0.31 µg/mL | 2.0 mg/kg/day | 10 | 0.11 mg/kg/day | 173 | 0.15 mg/kg/day | 127 | 0.12 mg/kg/day | 158 | 19 mg/kg/day |
| Cc1c(N)nc(C(CC(N)=O)NCC(N)C(N)=O)nc1C(=O)NC(C(=O)NC(C)C(O)CC(=O)NC(C(=O)NC(OC1OC(C)C(N)C(O)C1O)C(O)c1nc(-c2nc(C(=O)NCCCN(CCO)CCO)cs2)cs1)C(C)O)C(OC1OC(CO)C(O)C(O)C1OC1OC(CO)C(O)C(OC(N)=O)C1O)c1c[nH]cn1 (stereo not drawn) [Tallysomycin S8b] | 1.6 | 0.013 | > 50 | 0.2 | 0.1 | 0.8 | 0.8 | 0.4 | 370 μ/mg | 0.02 µg/mL | 1.5 mg/kg/day | 20 | 0.25 mg/kg/day | 120 | 0.26 mg/kg/day | 115 | 0.12 mg/kg/day | 250 | 30 mg/kg/day |
| Cc1c(N)nc(C(CC(N)=O)NCC(N)C(N)=O)nc1C(=O)NC(C(=O)NC(C)C(O)CC(=O)NC(C(=O)NC(OC1OC(C)C(N)C(O)C1O)C(O)c1nc(-c2nc(C(=O)NCCCC(N)CC(=O)NCCCNCCO)cs2)cs1)C(C)O)C(OC1OC(CO)C(O)C(O)C1OC1OC(CO)C(O)C(OC(N)=O)C1O)c1c[nH]cn1 (stereo not drawn) [Tallysomycin S6a] | 0.2 | 0.03 | 6.3 | 0.4 | 0.4 | 1.6 | 1.6 | 0.8 | 460 μ/mg | 0.02 µg/mL | 0.70 mg/kg/day | 21 | 0.09 mg/kg/day | 167 | 0.12 mg/kg/day | 125 | 0.47 mg/kg/day | 32 | 15 mg/kg/day |
| Cc1c(N)nc(C(CC(N)=O)NCC(N)C(N)=O)nc1C(=O)NC(C(=O)NC(C)C(O)CC(=O)NC(C(=O)NC(OC1OC(C)C(N)C(O)C1O)C(O)c1nc(-c2nc(C(=O)NCCCC(N)CC(=O)NCCC[S+](C)C)cs2)cs1)C(C)O)C(OC1OC(CO)C(O)C(O)C1OC1OC(CO)C(O)C(OC(N)=O)C1O)c1c[nH]cn1 (stereo not drawn) [Tallysomycin S2a] | 0.4 | < 0.05 | 6.3 | < 0.05 | < 0.05 | 0.2 | 0.8 | 0.2 | 350 μ/mg | 0.31 µg/mL | > 3.0 mg/kg/day | < 8 | 0.07 mg/kg/day | 357 | 0.17 mg/kg/day | 147 | 0.14 mg/kg/day | 179 | 25 mg/kg/day |
| Cc1c(N)nc(C(CC(N)=O)NCC(N)C(N)=O)nc1C(=O)NC(C(=O)NC(C)C(O)CC(=O)NC(C(=O)NC(OC1OC(C)C(N)C(O)C1O)C(O)c1nc(-c2nc(C(=O)NCCN)cs2)cs1)C(C)O)C(OC1OC(CO)C(O)C(O)C1OC1OC(CO)C(O)C(OC(N)=O)C1O)c1c[nH]cn1 (stereo not drawn) [Tallysomycin S3b] | 0.8 | 0.013 | 12.5 | 0.1 | 0.05 | 0.2 | 1.6 | 0.8 | 725 μ/mg | 0.31 µg/mL | 0.32 mg/kg/day | 59 | 0.06 mg/kg/day | 317 | 0.20 mg/kg/day | 95 | 0.26 mg/kg/day | 73 | 19 mg/kg/day |
| Cc1c(N)nc(C(CC(N)=O)NCC(N)C(N)=O)nc1C(=O)NC(C(=O)NC(C)C(O)CC(=O)NC(C(=O)NC(OC1OC(C)C(N)C(O)C1O)C(O)c1nc(-c2nc(C(=O)NCCCNCCO)cs2)cs1)C(C)O)C(OC1OC(CO)C(O)C(O)C1OC1OC(CO)C(O)C(OC(N)=O)C1O)c1c[nH]cn1 (stereo not drawn) [Tallysomycin S6b] | 0.8 | 0.02 | 25 | 0.4 | 0.2 | 3.1 | 12.5 | 6.3 | 340 μ/mg | 0.08 µg/mL | 2.2 mg/kg/day | 14 | 0.08 mg/kg/day | 375 | 0.22 mg/kg/day | 136 | 0.17 mg/kg/day | 176 | 30 mg/kg/day |
